In patent publication US20070232563A1, “Method for Enhancing Biological Activity and/or Expanding Suitable Region for Biological Activity of Living Body Contacting with Aqueous Environment” (Kabushiki Kaisha Hayashibara Seibutsu Kagaku Kenky, priority 2004, published 2007):

Legend:
[1] = test system: short-necked clam (Ruditapes philippinarum); experiment: Biological activity of short-necked clam (aqueduct extension score) in aqueous mineral solutions; assay type: in vivo; conditions: saccharide 1 w/v %, total of 18 clams, 16 h
Method: Suitable region for biological activity of short-necked clam (Ruditapes philippinarum), as a fish or shellfish living in seawater, was examined by adding various saccharides to mineral aqueous solutions with various concentrations. In detail, solar salt (85% by weight of sodium chloride and 15% by weight of magnesium) as minerals was dissolved in running water kept in a container for two days to give final concentrations described in the following Table 1. Saccharide (any one of D-glucose, maltose, sucrose, maltitol, α,α-trehalose, α-maltosyl α,α-trehalose, maltotetraose and cyclic tetrasaccharide) was dissolved in the resulting salt solutions to give a final concentration of 1 w/v %, on a dry solid basis. Each of the resulting solutions was placed in a plastic bat. Eighteen pre-selected active short-necked clam in one group were placed in the bat. The bat was shaded with a black cloth and left at ambient temperature (18° C.) for 16 hours. As a control, an aqueous solar salt solution without any saccharides was prepared. Saccharides except for α-maltosyl α,α-trehalose as a saccharide derivatives thereof and cyclic tetrasaccharide were chosen from commercialized products. α-Maltosyl α,α-trehalose as saccharide derivatives of α,α-trehalose in a powder form with a purity of 98 w/w % or over was prepared by the method disclosed in Experiment 4 in Japanese Patent Kokai No. 143876/1995. Cyclic tetrasaccharide in a crystalline form with a purity of 98 w/w % or over, on a dry solid basis, was prepared by the method disclosed in Example A-7 in International Patent Publication No. WO02/10361. Influence of various saccharides was judged by observing the degree of extending aqueduct of the shellfish; 3 points: its aqueduct is well extended; 2 points: its aqueduct is slightly extended; 1 point: its aqueduct is not extended but its shells are opened; 0 point: its shells are closed. The effect on biological activity was judged by the total point of 18 shellfishes. To investigate the effective concentration range of α,α-trehalose or α-maltosyl α,α-trehalose against a mineral solution with a concentration of 1.5 w/v % or 4.5 w/v %, where α,α-trehalose or α-maltosyl α,α-trehalose was remarkably effective in Experiment 1, the following experiment using α,α-trehalose or α-maltosyl α,α-trehalose at a concentration of 0.01, 0.1, 1, 2, 3 or 4 w/v % was carried out according to the method in Experiment 1. As a control, mineral aqueous solutions with a concentration of 1.5 w/v % or 4.5 w/v % without any of the saccharides were prepared and carried out in the same manner.

[2] = test system: colbicula (Corbicula leana); experiment: Biological activity of corbicula (aqueduct extension score) in aqueous mineral solutions; assay type: in vivo; conditions: saccharide 1 w/v %, total of 18 shellfishes, 16 h
Text: Influence of various saccharides was judged by observing the degree of extending aqueduct of the shellfish; 3 points: its aqueduct is well extended; 2 points: its aqueduct is slightly extended; 1 point: its aqueduct is not extended but its shells are opened; 0 point: its shells are closed. The effect on biological activity was judged by the total point of 18 shellfishes.
Suitable region for biological activity was examined by using colbicula (Corbicula leana) as fishes and shellfishes living in fresh water in the case of enhancing their biological activity by using aqueous mineral solutions containing various saccharides. In detail, solar salt (85% by weight of sodium chloride and 15% by weight of magnesium) as minerals was dissolved in tap water kept in a container for two days to give final concentrations described in the following Table 4. Saccharide (any one of D-glucose, maltose, sucrose, maltitol, α,α-trehalose, α-maltosyl α,α-trehalose, maltotetraose and cyclic tetrasaccharide) was dissolved in the resulting salt solutions to give a final concentration of 1 w/v %, on a dry solid basis. The resulting each solution was placed in a plastic bat. Eighteen pre-selected active shellfishes in one group were placed in the bat. The bat was shaded with a black cloth and left at ambient temperature (18° C.) for 16 hours. As a control, an aqueous solar salt solution without saccharides was prepared. Biological activity of the shellfish was judged by measuring extend their aqueducts macroscopically in the same manner as in Experiment 1.
Effective concentration range of α,α-trehalose or α-maltosyl α,α-trehalose on enhancing biological activity and/or influencing on suitable region for biological activity of colbicula (Corbicula leana) was determined according to the method of Experiment 4 by examining biological activity of the shellfish in the aqueous mineral solution with a mineral concentration of 1.5 w/v %, where α,α-trehalose or α-maltosyl α,α-trehalose was effective in Experiment 4, containing α,α-trehalose or α-maltosyl α,α-trehalose at a concentration of 0.01, 0.1, 1, 2, 3 or 4 w/v %, on a dry solid basis. As a control, a solution containing 1.5 w/v % of mineral without such saccharides was prepared and treated in the same manner.

Structure (SMILES) | Judgment score for biological activity ([1]; mineral 0 w/v %) | Judgment score for biological activity ([1]; mineral 0.5 w/v %) | Judgment score for biological activity ([1]; mineral 1.0 w/v %) | Judgment score for biological activity ([1]; mineral 1.5 w/v %) | Judgment score for biological activity ([1]; mineral 2.0 w/v %) | Judgment score for biological activity ([1]; mineral 2.5 w/v %) | Judgment score for biological activity ([1]; mineral 3.0 w/v %) | Judgment score for biological activity ([1]; mineral 3.5 w/v %) | Judgment score for biological activity ([1]; mineral 4.0 w/v %) | Judgment score for biological activity ([1]; mineral 4.5 w/v %) | Judgment score for biological activity ([1]; mineral 5.0 w/v %) | Judgment score for biological activity ([1]; mineral 5.5 w/v %) | Judgment score for biological activity ([1]; mineral 6.0 w/v %) | Judgment score of biological activity ([2]; mineral concentration 0) | Judgment score of biological activity ([2]; mineral concentration 0.5) | Judgment score of biological activity ([2]; mineral concentration 1.0) | Judgment score of biological activity ([2]; mineral concentration 1.5) | Judgment score of biological activity ([2]; mineral concentration 2.0) | Judgment score of biological activity ([2]; mineral concentration 2.5) | Judgment score of biological activity ([2]; mineral concentration 3.0)
OC[C@@H](O)[C@@H](O[C@H]1O[C@H](CO)[C@@H](O)[C@H](O)[C@H]1O)[C@H](O)[C@@H](O)CO [Maltitol, maltitol] | 8 | 11 | 15 | 20 | 30 | 41 | 48 | 47 | 32 | 16 | 12 | 5 | 0 | 50 | 47 | 25 | 18 | 13 | 2 | 0
OC[C@H]1O[C@@H]2OC[C@H]3O[C@H](O[C@@H]4[C@@H](O)[C@@H](OC[C@H]5O[C@H](O[C@H]([C@H]2O)[C@@H]1O)[C@H](O)[C@@H](O)[C@@H]5O)O[C@H](CO)[C@H]4O)[C@H](O)[C@@H](O)[C@@H]3O [Cyclic tetrasaccharide, cyclic tetrasaccharide] | 6 | 10 | 15 | 16 | 30 | 43 | 49 | 41 | 30 | 17 | 11 | 0 | 0 | 51 | 50 | 29 | 16 | 13 | 12 | 1
O=C[C@H](O)[C@@H](O)[C@H](O)[C@H](O)CO [D-Glucose, D-glucose] | 7 | 12 | 12 | 14 | 30 | 41 | 48 | 44 | 31 | 24 | 11 | 4 | 0 | 50 | 51 | 25 | 18 | 15 | 5 | 0
OC[C@H]1O[C@H](O[C@H]2[C@H](O)[C@@H](O)[C@@H](O[C@H]3[C@H](O)[C@@H](O)[C@@H](O[C@H]4[C@H](O)[C@@H](O)C(O)O[C@@H]4CO)O[C@@H]3CO)O[C@@H]2CO)[C@H](O)[C@@H](O)[C@@H]1O (stereo partly drawn) [Maltotetraose, maltotetraose] | 7 | 11 | 12 | 16 | 28 | 45 | 46 | 42 | 31 | 26 | 14 | 5 | 0 | 51 | 49 | 19 | 14 | 11 | 9 | 0
OC[C@H]1O[C@@](CO)(O[C@H]2O[C@H](CO)[C@@H](O)[C@H](O)[C@H]2O)[C@@H](O)[C@@H]1O [Sucrose, sucrose] | 7 | 11 | 14 | 16 | 31 | 44 | 48 | 45 | 30 | 21 | 9 | 0 | 0 | 51 | 46 | 21 | 11 | 8 | 7 | 0
OC[C@H]1O[C@H](O[C@H]2[C@H](O)[C@@H](O)C(O)O[C@@H]2CO)[C@H](O)[C@@H](O)[C@@H]1O (mixture of isomers) [Maltose, maltose] | 4 | 12 | 14 | 15 | 32 | 44 | 48 | 42 | 32 | 25 | 8 | 3 | 0 | 51 | 49 | 18 | 15 | 14 | 9 | 0
